# Biological target: T1, human PTH1 receptor (Homo sapiens, UniProt Q03431)
# T1 sequence (Q03431 27-593): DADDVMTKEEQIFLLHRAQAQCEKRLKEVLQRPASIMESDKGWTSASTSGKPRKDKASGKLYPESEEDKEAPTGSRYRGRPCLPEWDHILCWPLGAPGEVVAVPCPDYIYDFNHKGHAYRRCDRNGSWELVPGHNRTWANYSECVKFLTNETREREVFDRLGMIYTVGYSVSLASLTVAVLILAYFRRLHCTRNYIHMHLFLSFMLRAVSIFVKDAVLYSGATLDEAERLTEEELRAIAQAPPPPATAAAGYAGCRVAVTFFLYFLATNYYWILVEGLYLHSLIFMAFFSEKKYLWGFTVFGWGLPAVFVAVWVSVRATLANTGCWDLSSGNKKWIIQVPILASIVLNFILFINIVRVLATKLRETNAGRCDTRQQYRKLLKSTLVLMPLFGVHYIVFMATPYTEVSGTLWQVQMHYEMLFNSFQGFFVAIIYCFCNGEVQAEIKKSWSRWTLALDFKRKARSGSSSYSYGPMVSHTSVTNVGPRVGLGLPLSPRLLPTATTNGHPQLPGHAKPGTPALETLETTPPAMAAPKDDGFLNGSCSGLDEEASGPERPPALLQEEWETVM
# Assay: In vitro cAMP signal activity in HKRK-B7 cells (LLC-PK1 cells overexpressing the human PTH1 receptor)
# Assay type: cell-based
# Settings: HKRK-B7 cells; compound at 1×10^−3 M; cAMP produced as percentage of that produced by hPTH(1-34) at 100 nM
row,Compound,cAMP production activity (%)
1,"Cc1cc(C(=O)N2CCC(C)(O)CC2)cc(C)c1/C=C/S(=O)(=O)N1CCC2(CC1)N=C(c1ccc(Cl)c(OCC(F)(F)C(F)F)c1)NC2=O [Compound 1229, 2-[4-chloro-3-(2,2,3,3-tetrafluoro-propoxy)-phenyl]-8-{(E)-2-[4-(4-hydroxy-4-methyl-piperidine-1-carbonyl)-2,6-dimethyl-phenyl]-ethenesulfonyl}-1,3,8-triaza-spiro[4.5]dec-1-en-4-one]",56
2,"Cc1cc(C(=O)N2CCC(C)(O)CC2)cc(C)c1/C=C/S(=O)(=O)N1CCC2(CC1)N=C(c1ccc(Cl)c(OCC(F)(F)C(F)(F)F)c1)NC2=O [Compound 1230, 2-[4-chloro-3-(2,2,3,3,3-pentafluoro-propoxy)-phenyl]-8-{(E)-2-[4-(4-hydroxy-4-methyl-piperidine-1-carbonyl)-2,6-dimethyl-phenyl]-ethenesulfonyl}-1,3,8-triaza-spiro[4.5]dec-1-en-4-one]",64
3,"[2H]C([2H])([2H])C([2H])([2H])C([2H])([2H])C([2H])([2H])Oc1cc(C2=NC3(CCN(S(=O)(=O)/C=C/c4c(C)cc(C(=O)N5CCC(C)(O)CC5)cc4C)CC3)C(=O)N2)ccc1Cl [Compound 1231, 2-(3-[1,1,2,2,3,3,4,4,4-^2H9]butoxy-4-chloro-phenyl)-8-{(E)-2-[4-(4-hydroxy-4-methyl-piperidine-1-carbonyl)-2,6-dimethyl-phenyl]-ethenesulfonyl}-1,3,8-triaza-spiro[4.5]dec-1-en-4-one]",88
4,"Cc1cc(C(=O)N2CCC(C)(O)CC2)cc(C)c1/C=C/S(=O)(=O)N1CCC2(CC1)N=C(c1ccc(OC(F)(F)F)c(OCCCC(F)(F)F)c1)NC2=O [Compound 1232, 8-{(E)-2-[4-(4-hydroxy-4-methyl-piperidine-1-carbonyl)-2,6-dimethyl-phenyl]-ethenesulfonyl}-2-[3-(4,4,4-trifluoro-butoxy)-4-trifluoromethoxy-phenyl]-1,3,8-triaza-spiro[4.5]dec-1-en-4-one]",106
5,"[2H]C([2H])([2H])C([2H])([2H])C([2H])([2H])C([2H])([2H])Oc1cc(C2=NC3(CCN(S(=O)(=O)/C=C/c4c(C)cc(C(=O)N5CCC(C)(O)CC5)cc4C)CC3)C(=O)N2)cc(C(F)(F)F)c1 [Compound 1233, 2-(3-[1,1,2,2,3,3,4,4,4-^2H9]butoxy-5-trifluoromethyl-phenyl)-8-{(E)-2-[4-(4-hydroxy-4-methyl-piperidine-1-carbonyl)-2,6-dimethyl-phenyl]-ethenesulfonyl}-1,3,8-triaza-spiro[4.5]dec-1-en-4-one]",78
6,"Cc1cc(C(=O)N2CCC(C)(O)CC2)cc(C)c1CCS(=O)(=O)N1CCC2(CC1)N=C(c1ccc(OC(F)(F)F)cc1)NC2=O [Compound 1234, 8-{2-[4-(4-hydroxy-4-methyl-piperidine-1-carbonyl)-2,6-dimethyl-phenyl]-ethanesulfonyl}-2-(4-trifluoromethoxy-phenyl)-1,3,8-triaza-spiro[4.5]dec-1-en-4-one]",114
7,"Cc1cc(C2=NC3(CCN(S(=O)(=O)CCc4c(C)cc(C(=O)N5CCC(C)(O)CC5)cc4C)CC3)C(=O)N2)ccc1C(F)(F)F [Compound 1235, 8-{2-[4-(4-hydroxy-4-methyl-piperidine-1-carbonyl)-2,6-dimethyl-phenyl]-ethanesulfonyl}-2-(3-methyl-4-trifluoromethyl-phenyl)-1,3,8-triaza-spiro[4.5]dec-1-en-4-one]",98
8,"Cc1cc(C(=O)N2CCC(C)(O)CC2)cc(C)c1CCS(=O)(=O)N1CCC2(CC1)N=C(c1ccc(C(F)(F)F)c(Cl)c1)NC2=O [Compound 1236, 2-(3-chloro-4-trifluoromethyl-phenyl)-8-{2-[4-(4-hydroxy-4-methyl-piperidine-1-carbonyl)-2,6-dimethyl-phenyl]-ethanesulfonyl}-1,3,8-triaza-spiro[4.5]dec-1-en-4-one]",99
9,"Cc1ccc(C2=NC3(CCN(S(=O)(=O)/C=C/c4c(C)cc(C(=O)N5CCC(C)(O)CC5)cc4C)CC3)C(=O)N2)cc1C [Compound 1237, 2-(3,4-dimethyl-phenyl)-8-{(E)-2-[4-(4-hydroxy-4-methyl-piperidine-1-carbonyl)-2,6-dimethyl-phenyl]-ethenesulfonyl}-1,3,8-triaza-spiro[4.5]dec-1-en-4-one]",96
10,"COc1ccc(C2=NC3(CCN(S(=O)(=O)/C=C/c4c(C)cc(C(=O)N5CCC(C)(O)CC5)cc4C)CC3)C(=O)N2)cc1C [Compound 1238, 8-{(E)-2-[4-(4-hydroxy-4-methyl-piperidine-1-carbonyl)-2,6-dimethyl-phenyl]-ethenesulfonyl}-2-(4-methoxy-3-methyl-phenyl)-1,3,8-triaza-spiro[4.5]dec-1-en-4-one]",73
11,"Cc1cc(C2=NC3(CCN(S(=O)(=O)/C=C/c4c(C)cc(C(=O)N5CCC(O)(CF)CC5)cc4C)CC3)C(=O)N2)c(C)cc1F [Compound 1239, 2-(4-Fluoro-2,5-dimethyl-phenyl)-8-{(E)-2-[4-(4-fluoromethyl-4-hydroxy-piperidine-1-carbonyl)-2,6-dimethyl-phenyl]-ethenesulfonyl}-1,3,8-triaza-spiro[4.5]dec-1-en-4-one]",91
12,"Cc1cc(C(=O)N2CCC(O)(CF)CC2)cc(C)c1/C=C/S(=O)(=O)N1CCC2(CC1)N=C(c1ccc(F)c(C)c1C)NC2=O [Compound 1240, 2-(4-fluoro-2,3-dimethyl-phenyl)-8-{(E)-2-[4-(4-fluoromethyl-4-hydroxy-piperidine-1-carbonyl)-2,6-dimethyl-phenyl]-ethenesulfonyl}-1,3,8-triaza-spiro[4.5]dec-1-en-4-one]",95
13,"Cc1cc(C(=O)N2CCC(O)(CF)CC2)cc(C)c1/C=C/S(=O)(=O)N1CCC2(CC1)N=C(c1ccc(C(F)(F)F)c(Cl)c1)NC2=O [Compound 1241, 2-(3-chloro-4-trifluoromethyl-phenyl)-8-{(E)-2-[4-(4-fluoromethyl-4-hydroxy-piperidine-1-carbonyl)-2,6-dimethyl-phenyl]-ethenesulfonyl}-1,3,8-triaza-spiro[4.5]dec-1-en-4-one]",101
14,"Cc1cc(C(=O)N2CCC(O)(CF)CC2)cc(C)c1/C=C/S(=O)(=O)N1CCC2(CC1)N=C(c1ccc(F)c(Cl)c1)NC2=O [Compound 1242, 2-(3-chloro-4-fluoro-phenyl)-8-{(E)-2-[4-(4-fluoromethyl-4-hydroxy-piperidine-1-carbonyl)-2,6-dimethyl-phenyl]-ethenesulfonyl}-1,3,8-triaza-spiro[4.5]dec-1-en-4-one]",106
15,"Cc1cc(C(=O)N2CCC(O)(CF)CC2)cc(C)c1/C=C/S(=O)(=O)N1CCC2(CC1)N=C(c1cccc(C(F)(F)C(F)(F)F)c1)NC2=O [Compound 1243, 8-{(E)-2-[4-(4-fluoromethyl-4-hydroxy-piperidine-1-carbonyl)-2,6-dimethyl-phenyl]-ethenesulfonyl}-2-(3-pentafluoroethyl-phenyl)-1,3,8-triaza-spiro[4.5]dec-1-en-4-one]",77
16,"Cc1cc(C(=O)N2CCC(O)(CF)CC2)cc(C)c1/C=C/S(=O)(=O)N1CCC2(CC1)N=C(c1ccc(C(F)(F)C(F)(F)F)cc1)NC2=O [Compound 1244, 8-{(E)-2-[4-(4-fluoromethyl-4-hydroxy-piperidine-1-carbonyl)-2,6-dimethyl-phenyl]-ethenesulfonyl}-2-(4-pentafluoroethyl-phenyl)-1,3,8-triaza-spiro[4.5]dec-1-en-4-one]",96
17,"Cc1cc(C(=O)N2CCC(O)(CF)CC2)cc(C)c1/C=C/S(=O)(=O)N1CCC2(CC1)N=C(c1ccc(S(F)(F)(F)(F)F)cc1)NC2=O [Compound 1245, 8-{(E)-2-[4-(4-fluoromethyl-4-hydroxy-piperidine-1-carbonyl)-2,6-dimethyl-phenyl]-ethenesulfonyl}-2-(4-pentafluorosulfanyl-phenyl)-1,3,8-triaza-spiro[4.5]dec-1-en-4-one]",115
18,"Cc1cc(C(=O)N2CCC(O)(CF)CC2)cc(C)c1/C=C/S(=O)(=O)N1CCC2(CC1)N=C(c1ccc(OCC(F)(F)F)c(Cl)c1)NC2=O [Compound 1246, 2-[3-chloro-4-(2,2,2-trifluoro-ethoxy)-phenyl]-8-{(E)-2-[4-(4-fluoromethyl-4-hydroxy-piperidine-1-carbonyl)-2,6-dimethyl-phenyl]-ethenesulfonyl}-1,3,8-triaza-spiro[4.5]dec-1-en-4-one]",85
19,"Cc1cc(C(=O)N2CCC(O)(CF)CC2)cc(C)c1/C=C/S(=O)(=O)N1CCC2(CC1)N=C(c1ccc(OCC(F)(F)C(F)F)c(Cl)c1)NC2=O [Compound 1247, 2-[3-chloro-4-(2,2,3,3-tetrafluoro-propoxy)-phenyl]-8-{(E)-2-[4-(4-fluoromethyl-4-hydroxy-piperidine-1-carbonyl)-2,6-dimethyl-phenyl]-ethenesulfonyl}-1,3,8-triaza-spiro[4.5]dec-1-en-4-one]",70
20,"Cc1cc(C(=O)N2CCC(O)(CF)CC2)cc(C)c1/C=C/S(=O)(=O)N1CCC2(CC1)N=C(c1ccc(OCC(F)(F)F)c(C(F)(F)F)c1)NC2=O [Compound 1248, 8-{(E)-2-[4-(4-fluoromethyl-4-hydroxy-piperidine-1-carbonyl)-2,6-dimethyl-phenyl]-ethenesulfonyl}-2-[4-(2,2,2-trifluoro-ethoxy)-3-trifluoromethyl-phenyl]-1,3,8-triaza-spiro[4.5]dec-1-en-4-one]",81

# — US9169254B2, “Spiroimidazolone derivative” (Chugai Seiyaku Kabushiki Kaisha, priority 2009, dated 2015)
